Earlier results in patent US9624258B2, “Polymorph of regadenoson” (Biophore India Pharmaceuticals PVT. Ltd., priority 2013, dated 2017).

Experiments:
[1] = background statement
[2] = biological target: A2A adenosine receptor (Homo sapiens, UniProt P29274); conditions: background statement on compound of U.S. Pat. No. 6,403,567
Chain of A2A adenosine receptor (P29274 whole entry): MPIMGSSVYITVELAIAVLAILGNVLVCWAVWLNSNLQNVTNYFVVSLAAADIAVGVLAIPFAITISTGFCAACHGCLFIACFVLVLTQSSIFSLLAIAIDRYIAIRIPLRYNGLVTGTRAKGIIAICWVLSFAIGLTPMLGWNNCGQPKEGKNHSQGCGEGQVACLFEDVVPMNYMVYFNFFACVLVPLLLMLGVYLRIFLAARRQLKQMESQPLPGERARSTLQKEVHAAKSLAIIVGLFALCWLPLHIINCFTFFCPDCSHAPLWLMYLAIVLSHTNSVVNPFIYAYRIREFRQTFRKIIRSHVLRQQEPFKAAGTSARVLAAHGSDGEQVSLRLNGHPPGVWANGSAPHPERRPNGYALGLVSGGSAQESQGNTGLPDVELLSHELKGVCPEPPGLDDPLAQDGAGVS

For `CNC(=O)c1cnn(-c2nc(N)c3ncn([C@@H]4O[C@H](CO)[C@@H](O)[C@H]4O)c3n2)c1` [Regadenoson, (1-{9-[(4S,2R,3R,5R)-3,4-dihydroxy-5-(hydroxymethyl)oxolan-2-yl)-6-aminopurin-2-yl}pyrazole-4-yl)-N-methylcarboxamide], the biological half-life [1] is listed as 2- to 3 minute and the “A2A adenosine receptor agonist selectivity” value [2] is listed as “highly selective A2A adenosine receptor agonist”.
